Values of other authors as cited in PMC1976805, “Preclinical pharmacokinetics of benznidazole” (British Journal of Cancer, 1984).
Where two headings read alike, the source gives them in different places.

How the values were obtained:
[1] = EMT6 flank tumours; ref Workman, 1980b and 1983; cited from earlier work
[2] = spontaneous dog neoplasms; ref Workman, 1980b and 1983; cited from earlier work
[3] = mice; ref Workman, 1980b and 1983; cited from earlier work
[4] = large crossbred dogs; ref Workman, 1980b and 1983; cited from earlier work
[5] = humans; ref Workman, 1980b and 1983; cited from earlier work
[6] = sheep; ref Miller, personal communication; cited from earlier work
[7] = mice; ref Workman, 1980b and 1983; cited from earlier work; remark: listed apart in the source
[8] = ref Workman, 1980b and 1983, cited from earlier work
plasma proteins = settings: ref Workman, 1980b and 1983; cited from earlier work

In the case of COCC(O)Cn1ccnc1[N+](=O)[O-] (centres unmarked) [MISO, 1-(2-nitro-imidazol-1-yl)-3-methoxypropan-2-ol], the “overall tissue/whole plasma ratio” value [1] is given as 87%, the “steady-state tumour/whole plasma ratio (about)” value [1] is given as “about 90%” and the tissue/whole plasma ratio [2] is given as 61%. For the same compound, the “elimination t1/2” value [3] was 0.333 to 0.667 h, the “elimination t1/2” value [4] was 4 to 5 h and the “usual average t1/2” value [5] was 10 to 12 h. The “elimination t1/2” value [6] was 0.667 to 1 h, the brain/whole plasma ratio [7] was 90% and the “peripheral nerve/whole plasma ratio” value ([8]; dog) was 82%. For the same compound, the brain/whole plasma ratio ([8]; dogs) was 70% and the “appreciable plasma protein binding” value (plasma proteins) was “does not occur”.
